ChEMBL document CHEMBL1126533, “Synthesis of a potential photoaffinity labelling reagent for HIV-1 reverse transcriptase” (Bioorg Med Chem Lett, 1993)
pEC50: −log10 of the molar value.

Tests used:
[1] = system: MT4; test: Effective concentration required to achieve 50% protection of MT-4 cells against the cytopathic effect of HIV-1; type: functional, cell-based; conditions: Homo sapiens
[2] = system: MT4; test: Cytotoxic concentration required to reduce viability of mock-infected MT-4 cells by 50%; type: functional; conditions: Homo sapiens

Structure (SMILES) | pEC50 [1] | CC50 [2] [µM]
CCOCn1c(Sc2ccccc2)c(CC)c(=O)[nH]c1=O | 7.74 | 197
CCOCn1c(Cc2cccc(O)c2)c(CC)c(=O)[nH]c1=O | 6.40 | 201
CCOCn1c(C(OC(C)=O)c2cccc([N+](=O)[O-])c2)c(CC)c(=O)[nH]c1=O (stereo not drawn) | 4.54 | 283
Cc1c(Sc2ccccc2)n(COCCO)c(=O)[nH]c1=O [HEPT] | – | 740
CCOCn1c(C(=O)c2cccc([N+](=O)[O-])c2)c(CC)c(=O)[nH]c1=O | 6.68 | 232
CCOCn1c(Cc2cccc(N)c2)c(CC)c(=O)[nH]c1=O | 6.85 | 297
CCOCn1c(Cc2cccc(N=[N+]=[N-])c2)c(CC)c(=O)[nH]c1=O | 7.96 | 117
